Columns and labels:
human EP4 receptor [1] = biological target: T1, human EP4 receptor (Homo sapiens, UniProt P35408); assay: [3H]-Prostaglandin E2 membrane binding assay (human EP4/HEK293 transfectant membranes); details: [3H]-PGE2 1 nM, hEP4/HEK293 membranes; Ki by Cheng-Prusoff; read-out: Binding pKi (converted)
T1 construct: expressed in transfected cells; membrane fraction used
Text: (§1) Stable Expression of Human EP4 Receptors in the Human Embryonic Kidney (HEK293) Cell Line
(§2) The cDNA clone of human EP4 receptor (NM_000958.2) was obtained from Invitrogen™: Ultimate™ ORF Clone Collection—Clone ID IOH46525. The coding sequence was subcloned in expression vector pcDNA™6.2/V5-DEST by Gateway technology (Invitrogen™).
(§3) Human embryonic kidney cells (HEK-293) were stably transfected with expression vector for human EP4 receptor in according to the method described in FuGENE®6 Transfection Reagent's manual (Roche Applied Science®).
(§4) Preparation of Membrane Fraction:
(§5) The EP4 transfected cells were grown in Dulbecco's modified Eagle's medium containing 10% fetal bovine serum and 10 μg/ml Blasticidin S HCl (selection medium) at 37° C. in a humidified atmosphere of 5% CO2 in air.
(§6) For the membrane preparation, cells in flask were harvested by hypotonical/mechanical lysis with chilled (4° C.) TE buffer (5 mM TRIS, 5 mM etylenediamine tetra-acetic acid (EDTA), pH 7.4).
(§7) Cells were detached and lysed with 10 ml of hypotonic lysis buffer and by scraping. The cell lysate was vortexed for 30 sec and centrifuged at 40000×g at 4° C. for 22 min.
a) Membrane Binding Assay[3H]-Prostaglandin E2
The membrane pellet was resuspended in the same buffer (5 mM TRIS, 5 mM ethylenediamine tetra-acetic acid (EDTA), pH 7.4), and protein concentration was determined by Bradford method (Bio-Bad® assay).
This membrane preparation was stored at −80° C. freezer until use for binding assay.
([^3H]-PGE2) membranes binding assays toward hEP4 receptors (human EP4/HEK293 transfectant, see above) and hEP2 receptors (human EP2/HEK293 transfectant, purchased from PerkinElmer Inc) were performed in 10 mM MES-KOH buffer pH6, containing 10 mM MgCl2 and 1 mM CaCl2 for EP4 binding assay or 50 mM Tris-Cl, BSA 0.5% for EP2 binding assay (according to supplier indication).
Ten microgram of protein from membrane fractions were incubated in a total volume of 0.1 ml (EP4) or 0.2 ml (EP2) with 1 nM (EP4) or 3 nM (EP2) [^3H]-PGE2 (PerkinElmer Inc, 171 Ci/mmol). In both assays to determine the total binding or non specific binding, 1% DMSO or 1 μM prostaglandin E2 (EP4) or 100 μM (EP2) were added to reaction mixtures, respectively. Incubation was conducted in a polypropylene 96 multiwell for 90 min (EP4) or 60 min (EP2) at room temperature prior to separation of the bound and free radioligand by vacuum manifold rapid filtration on glass fiber filters (Unifilter GFB96, PerkinElmer Inc) pre-soaked in 0.3% polyethyleneimine. Filters were washed with ice cold buffer pH 7.4 (50 mM HEPES, NaCl 500 mM, BSA 0.1% for EP4 binding assay or 50 mM Tris-Cl for EP2 binding assays) and the residual [^3H]-PGE2 binding determined by solid scintillation counter (TopCount, PerkinElmer Inc).
The affinity (Ki) of each compound was calculated according to the Cheng-Prousoff equation: Ki=IC50/(1+([C]/Kd)). Results were expressed as pKi (−log 10 Ki (M)
Compounds of example 1 to 82 were tested according to method of example 83a in a final concentration range from 1 nM to 1 μM.

human EP4 receptor [2] = biological target: T1, human EP4 receptor; assay: cAMP assay (AlphaScreen) on human EP4 membrane of transfected cells, antagonism of PGE2; type: biochemical; details: HEK293 hEP4 cell membrane stimulated with PGE2 3 nM; read-out: functional IC50
Text: as §1, §2, §3, §4, §5, §6, §7
b) cAMP Assay on Human EP4 Membrane of Transfected Cells.
The assay is based on the competition between endogenous cAMP and exogenously added biotinylated cAMP. The capture of cAMP is achieved by using a specific antibody conjugated to […] beads.
Cell membranes prepared as described above, were resuspended in 1 ml stimulation buffer (HBSS 1×+BSA 0.1%+IBMX 0.5 mM+HEPES 5 mM+MgCl2 10 mM+GTP 1 nM+GDP 10 μM+ATP 100 μM−pH 7.4). Cell membranes were dispensed into white 384-well microplates at final concentration of 1 μg/well and used for the determination of cAMP with the alphascreen cAMP functional assay (EnVision—PerkinElmer). Cell membrane/anti-cAMP Acceptor beads mix (5 μl) and a mixture of analysed compounds (dissolved in 100% DMSO to a final maximal concentration of 0.01% DMSO)/PGE2 (5 μl) were incubated at room temperature (22-23° C.) for 30 min in the dark. The Biotinylated-cAMP and donor beads (15 μl) were dispensed into each well to start the competition reaction. After 1 h incubation RT (22-23° C.) in the dark the plate was read using EnVision platform to determine the cAMP level (excitation: 680 nm; emission: 520,620 nm).
cAMP standard curve (concentration range from 1×10-6 to 1×10-11 M in. log intervals) with a negative control (no cAMP) a positive control:forskolin 10 μM
Antagonism studies were performed stimulating HEK293 cell membrane with PGE2 3 nM. The AlphaScreen signal is plotted as a function of log concentration of cAMP and functional IC50 is determined. IC50 value is calculated by linear regression.
Some compounds were tested according to method of example 83b.

T1 sequence (P35408 whole entry): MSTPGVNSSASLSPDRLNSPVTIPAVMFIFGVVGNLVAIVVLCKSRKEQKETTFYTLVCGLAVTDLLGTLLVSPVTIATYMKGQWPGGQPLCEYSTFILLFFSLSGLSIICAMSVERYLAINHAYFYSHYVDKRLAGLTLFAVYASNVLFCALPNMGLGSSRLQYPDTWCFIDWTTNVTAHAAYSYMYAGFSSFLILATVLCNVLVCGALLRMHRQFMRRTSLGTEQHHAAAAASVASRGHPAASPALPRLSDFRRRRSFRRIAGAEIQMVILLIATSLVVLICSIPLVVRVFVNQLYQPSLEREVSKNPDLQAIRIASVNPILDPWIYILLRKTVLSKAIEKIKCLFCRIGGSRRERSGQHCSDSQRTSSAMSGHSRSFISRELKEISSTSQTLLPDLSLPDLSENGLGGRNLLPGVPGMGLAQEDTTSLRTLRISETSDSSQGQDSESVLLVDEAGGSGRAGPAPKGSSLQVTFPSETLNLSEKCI

Row | SMILES | Ki (human EP4 receptor [1]) [nM] | IC50 (human EP4 receptor [2]) [nM]
1 | O=C(O)c1ccc(C2(NC(=O)c3cc(Cl)cnc3N3CCC(Oc4cccc(F)c4)C3)CC2)cc1 (single isomer, unassigned) [E 71, 4-(1-(5-chloro-2-(3-(3-fluorophenoxy)pyrrolidin-1-yl)nicotinamido)cyclopropyl)benzoic acid] | 39.8 | 110
2 | O=C(O)c1ccc(C2(NC(=O)c3cc(Cl)cnc3N3CC(Oc4ccc(F)c(C(F)(F)F)c4)C3)CC2)cc1 [E 17, 4-(1-(5-chloro-2-(3-(4-fluoro-3-(trifluoromethyl)phenoxy)azetidin-1-yl)nicotinamido)cyclopropyl)benzoic acid] | 20 | 82
3 | O=C(O)c1ccc(C2(NC(=O)c3cc(Cl)cnc3N3CC(C(=O)c4cccc(F)c4)C3)CC2)cc1 [E 25, 4-(1-(5-chloro-2-(3-(3-fluorobenzoyl)azetidin-1-yl)nicotinamido)cyclopropyl)benzoic acid] | 63.1 | 135
4 | O=C(O)c1ccc(C2(NC(=O)c3cc(C(F)(F)F)cnc3N3CC(Oc4cccc(Cl)c4)C3)CC2)cc1 [E 41, 4-(1-(2-(3-(3-chlorophenoxy)azetidin-1-yl)-5-(trifluoromethyl)nicotinamido)cyclopropyl)benzoic acid] | 5.01 | 7.7
5 | O=C(O)c1ccc(C2(NC(=O)c3cc(Cl)cnc3N3CC(Nc4cccc(F)c4)C3)CC2)cc1 [E 32, 4-(1-(5-chloro-2-(3-((3-fluorophenyl)amino)azetidin-1-yl)nicotinamido)cyclopropyl)benzoic acid] | 25.1 | 76
6 | O=C(O)c1ccc(C2(NC(=O)c3cc(Cl)cnc3N3CCC(Oc4cccc(C(F)(F)F)c4)C3)CC2)cc1 (single isomer, unassigned) [E 64, 4-(1-(5-chloro-2-(3-(3-(trifluoromethyl)phenoxy)pyrrolidin-1-yl)nicotinamido)cyclopropyl)benzoic acid] | 31.6 | 99
7 | O=C(O)c1ccc(C2(NC(=O)c3cc(C(F)(F)F)cnc3N3CC(Oc4ccc(F)c(C(F)(F)F)c4)C3)CC2)cc1 [E 42, 4-(1-(2-(3-(4-fluoro-3-(trifluoromethyl)phenoxy)azetidin-1-yl)-5-(trifluoromethyl)nicotinamido)cyclopropyl)benzoic acid] | 3.16 | 35
8 | O=C(O)c1ccc(C2(NC(=O)c3cc(Cl)cnc3N3CCC(Oc4cccc(C(F)(F)F)c4)C3)CC2)cc1 (single isomer, unassigned) [E 65, 4-(1-(5-chloro-2-(3-(3-(trifluoromethyl)phenoxy)pyrrolidin-1-yl)nicotinamido)cyclopropyl)benzoic acid] | 39.8 | 65
9 | O=C(O)c1ccc(C2(NC(=O)c3cc(Cl)cnc3N3CC(O)(c4ccc(F)cc4)C3)CC2)cc1 [E 28, 4-(1-(5-chloro-2-(3-(4-fluorophenyl)-3-hydroxyazetidin-1-yl)nicotinamido)cyclopropyl)benzoic acid] | 79.4 | 197
10 | O=C(O)c1ccc(C2(NC(=O)c3cc(Cl)cnc3N3CCC(COc4cccc(F)c4)C3)CC2)cc1 (stereo not drawn) [E 76, 4-(1-(5-chloro-2-(3-((3-fluorophenoxy)methyl)pyrrolidin-1-yl)nicotinamido)cyclopropyl)benzoic acid] | 31.6 | 24
11 | O=C(O)c1ccc(C2(NC(=O)c3cc(F)cnc3N3CC(Oc4cccc(F)c4)C3)CC2)cc1 [E 53, 4-(1-(5-fluoro-2-(3-(3-fluorophenoxy)azetidin-1-yl)nicotinamido)cyclopropyl)benzoic acid] | 31.6 | 80
12 | O=C(O)c1ccc(C2(NC(=O)c3cc(Cl)cnc3N3CCC(Oc4cccc(C(F)(F)F)c4)C3)CC2)cc1 (single isomer, unassigned) [E 63, 4-(1-(5-chloro-2-(3-(3-(trifluoromethyl)phenoxy)pyrrolidin-1-yl)nicotinamido)cyclopropyl)benzoic acid] | 31.6 | 145
13 | O=C(O)c1ccc(C2(NC(=O)c3cc(C(F)(F)F)cnc3N3CC(Oc4cccc(C(F)(F)F)n4)C3)CC2)cc1 [E 47, 4-(1-(5-(trifluoromethyl)-2-(3-((6-(trifluoromethyl)pyridin-2-yl)oxy)azetidin-1-yl)nicotinamido)cyclopropyl)benzoic acid] | 63.1 | 228
14 | O=C(O)c1ccc(C2(NC(=O)c3cc(Cl)cnc3N3CC(Oc4ccc(C(F)(F)F)cc4)C3)CC2)cc1 [E 13, 4-(1-(5-chloro-2-(3-(4-(trifluoromethyl)phenoxy)azetidin-1-yl)nicotinamido)cyclopropyl)benzoic acid] | 25.1 | 187
15 | O=C(O)c1ccc(C2(NC(=O)c3cc(Cl)cnc3N3CCC(Oc4ccccc4)C3)CC2)cc1 (single isomer, unassigned) [E 62] | 25.1 | 46
16 | O=C(O)c1ccc(C2(NC(=O)c3cc(Cl)cnc3N3CC(Oc4ccc(F)cc4F)C3)CC2)cc1 [E 19, 4-(1-(5-chloro-2-(3-(2,4-difluorophenoxy)azetidin-1-yl)nicotinamido)cyclopropyl)benzoic acid] | 50.1 | 87
17 | O=C(O)c1ccc(C2(NC(=O)c3cc(Cl)cnc3N3CC(Oc4cccc(N5CCNCC5)c4)C3)CC2)cc1 [E 21, 4-(1-(5-chloro-2-(3-(3-(piperazin-1-yl)phenoxy)azetidin-1-yl)nicotinamido)cyclopropyl)benzoic acid] | 63.1 | 191
18 | O=C(O)c1ccc(C2(NC(=O)c3cc(C(F)(F)F)cnc3N3CC(Nc4cccc(F)c4)C3)CC2)cc1 [E 49, 4-(1-(2-(3-((3-fluorophenyl)amino)azetidin-1-yl)-5-(trifluoromethyl)nicotinamido)cyclopropyl)benzoic acid] | 25.1 | 69
19 | O=C(O)c1ccc(C2(NC(=O)c3cc(Cl)cnc3N3CCC(Oc4ccc(F)cc4)C3)CC2)cc1 (single isomer, unassigned) [E 68, 4-(1-(5-chloro-2-(3-(4-fluorophenoxy)pyrrolidin-1-yl)nicotinamido)cyclopropyl)benzoic acid] | 31.6 | 66
20 | C[C@H](NC(=O)c1cc(Cl)cnc1N1CC(Oc2cccc(F)c2)C1)c1ccc(C(=O)O)cc1 [E 12, (S)-4-(1-(5-chloro-2-(3-(3-fluorophenoxy)azetidin-1-yl)nicotinamido)ethyl)benzoic acid] | 15.8 | 102
21 | Cc1cc(F)ccc1N(C)C1CN(c2ncc(Cl)cc2C(=O)NC2(c3ccc(C(=O)O)cc3)CC2)C1 [E 37, 4-(1-(5-chloro-2-(3-((4-fluoro-2-methylphenyl)(methyl)amino)azetidin-1-yl)nicotinamido)cyclopropyl)benzoic acid] | 12.6 | 31
